From ChEMBL document CHEMBL1201862, “PubChem BioAssay data set” (2004) come the findings set out here.

In data set [1] the target is T1, Aminopeptidase N (Plasmodium falciparum FcB1/Columbia, UniProt O96935).
T1 sequence (O96935 whole entry): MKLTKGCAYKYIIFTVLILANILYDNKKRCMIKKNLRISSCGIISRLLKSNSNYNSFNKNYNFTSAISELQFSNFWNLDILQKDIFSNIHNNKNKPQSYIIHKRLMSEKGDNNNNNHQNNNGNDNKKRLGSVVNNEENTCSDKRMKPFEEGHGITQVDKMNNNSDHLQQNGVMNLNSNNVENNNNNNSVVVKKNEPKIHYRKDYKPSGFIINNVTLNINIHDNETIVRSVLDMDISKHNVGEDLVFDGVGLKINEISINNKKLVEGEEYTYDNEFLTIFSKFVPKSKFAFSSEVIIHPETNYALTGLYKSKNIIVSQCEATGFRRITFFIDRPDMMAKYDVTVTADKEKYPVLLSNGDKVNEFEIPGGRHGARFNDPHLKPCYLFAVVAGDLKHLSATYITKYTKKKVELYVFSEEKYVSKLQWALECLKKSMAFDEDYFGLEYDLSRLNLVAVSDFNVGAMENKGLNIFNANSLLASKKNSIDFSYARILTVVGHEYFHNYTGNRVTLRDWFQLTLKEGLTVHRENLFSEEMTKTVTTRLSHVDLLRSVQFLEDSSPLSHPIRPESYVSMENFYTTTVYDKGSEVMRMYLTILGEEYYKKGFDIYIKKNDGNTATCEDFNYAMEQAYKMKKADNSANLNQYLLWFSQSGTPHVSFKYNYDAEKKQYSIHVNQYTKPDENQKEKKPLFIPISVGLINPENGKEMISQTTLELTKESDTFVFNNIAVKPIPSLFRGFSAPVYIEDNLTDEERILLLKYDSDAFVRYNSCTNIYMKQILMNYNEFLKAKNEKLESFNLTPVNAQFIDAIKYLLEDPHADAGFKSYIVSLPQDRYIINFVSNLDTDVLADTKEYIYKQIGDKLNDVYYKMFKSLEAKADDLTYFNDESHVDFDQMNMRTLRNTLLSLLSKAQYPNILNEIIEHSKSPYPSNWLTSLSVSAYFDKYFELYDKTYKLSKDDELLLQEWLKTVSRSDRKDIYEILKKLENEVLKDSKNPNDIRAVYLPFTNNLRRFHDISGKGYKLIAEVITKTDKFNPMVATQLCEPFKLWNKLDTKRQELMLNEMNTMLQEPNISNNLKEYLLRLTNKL
Description: P. falciparum M1AAP inhibitors, biochemical, fluorogenic H-Leu-NHMec substrate, 1536-well (AID 1445). Further details: species or system Plasmodium falciparum 3D7, 3D7.

The target of data set [2] is Cytochrome P450 2C19 (Homo sapiens, UniProt P33261). Description: Cytochrome panel assay with activity outcomes. Panel member name: p450-cyp2c19 Compounds with AC50 equal or less than 10 uM are considered active. Format: functional.
Cytochrome P450 2C19, sequence (P33261 whole entry): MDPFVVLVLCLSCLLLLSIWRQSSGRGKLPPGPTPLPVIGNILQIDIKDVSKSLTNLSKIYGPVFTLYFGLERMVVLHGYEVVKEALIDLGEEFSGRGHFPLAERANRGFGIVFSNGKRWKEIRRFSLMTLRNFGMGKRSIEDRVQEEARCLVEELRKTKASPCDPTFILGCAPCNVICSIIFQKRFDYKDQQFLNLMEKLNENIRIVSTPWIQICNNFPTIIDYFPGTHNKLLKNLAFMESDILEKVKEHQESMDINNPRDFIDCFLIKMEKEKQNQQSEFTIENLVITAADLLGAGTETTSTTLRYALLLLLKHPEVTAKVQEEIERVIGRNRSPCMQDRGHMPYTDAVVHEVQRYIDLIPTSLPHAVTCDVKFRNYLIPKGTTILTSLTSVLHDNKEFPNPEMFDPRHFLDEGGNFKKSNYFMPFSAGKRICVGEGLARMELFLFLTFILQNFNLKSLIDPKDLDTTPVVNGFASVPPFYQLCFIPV
Data set [3] has as its target T2, High affinity choline transporter 1 (Homo sapiens, UniProt Q9GZV3).
T2 sequence (Q9GZV3 whole entry): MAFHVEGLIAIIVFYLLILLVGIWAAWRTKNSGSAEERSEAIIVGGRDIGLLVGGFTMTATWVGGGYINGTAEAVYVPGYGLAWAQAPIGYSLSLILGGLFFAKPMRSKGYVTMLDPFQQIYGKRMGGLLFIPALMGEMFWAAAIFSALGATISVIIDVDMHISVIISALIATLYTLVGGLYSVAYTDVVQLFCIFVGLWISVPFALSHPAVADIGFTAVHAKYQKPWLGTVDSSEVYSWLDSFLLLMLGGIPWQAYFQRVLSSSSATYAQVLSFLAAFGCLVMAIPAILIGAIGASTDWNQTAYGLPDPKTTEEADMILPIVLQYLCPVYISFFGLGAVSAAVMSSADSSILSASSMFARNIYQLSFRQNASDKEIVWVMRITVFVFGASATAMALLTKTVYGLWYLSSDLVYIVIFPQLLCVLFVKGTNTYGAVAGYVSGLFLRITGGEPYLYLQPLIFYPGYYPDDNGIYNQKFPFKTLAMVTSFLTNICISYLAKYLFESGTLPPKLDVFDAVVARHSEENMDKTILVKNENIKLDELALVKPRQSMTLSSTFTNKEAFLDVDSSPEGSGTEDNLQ
The data set is described as follows: CHT inhibitors, dose response, cell-based, 5-point CRC, membrane potential dye (AID 504840). It is filed as functional.

Data set [4] deals with H9c2. Description: cells. Format: functional, cell-based. To be noted: Rattus norvegicus, H9c2, Myocardium.
Data set [5] is described as follows: off-target signal loss in HeLa-CEM21 co-culture – HeLa F-luc CTL cells, cherry-picked, counter-screen for HIV-1 Env fusion inhibitor project, dose response (AID 652040).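 Note: potency for signal decrease marking cytotoxic or nonspecific inhibition.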 It is filed as functional, cell-based. (In general: A counterscreen serves to expose hits that act by an unwanted route or on another target.)
A short description of data set [6]: inhibitors of clade B AD8 Env fusion, dose response, cell-based, cherry-pick (AID 652062).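 Note: luciferase signal from cell-cell fusion driven by HIV-1 clade B AD8 Env; potency is for inhibitors of fusion seen as a drop in luminescence.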 Format: functional.
Data set [7] can be described thus: inhibitors of HIV Env-driven cell fusion, dose response, cherry-pick (AID 652057). Format: functional, cell-based.
A short description of data set [8]: ZM109 Env clade C HIV-1 fusion inhibitors, dose response, HeLa effector, CEM target cells, luciferase, cherry-pick (AID 652058). Format: functional, cell-based.
The target of data set [9] is Paired box protein Pax-8 (Homo sapiens, UniProt Q06710). Description: inhibitors of PAX8-driven TPO luciferase reporter, dose response, RMG-I cells, cherry-pick (AID 687027).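 Note: luciferase reporter driven by Pax8 target thyroperoxidase promoter measured by SteadyGlo luminescence.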 Format: functional, cell-based. (In general: In a reporter assay the amount or activity of a reporter protein is the signal.)
Paired box protein Pax-8, sequence (Q06710 whole entry): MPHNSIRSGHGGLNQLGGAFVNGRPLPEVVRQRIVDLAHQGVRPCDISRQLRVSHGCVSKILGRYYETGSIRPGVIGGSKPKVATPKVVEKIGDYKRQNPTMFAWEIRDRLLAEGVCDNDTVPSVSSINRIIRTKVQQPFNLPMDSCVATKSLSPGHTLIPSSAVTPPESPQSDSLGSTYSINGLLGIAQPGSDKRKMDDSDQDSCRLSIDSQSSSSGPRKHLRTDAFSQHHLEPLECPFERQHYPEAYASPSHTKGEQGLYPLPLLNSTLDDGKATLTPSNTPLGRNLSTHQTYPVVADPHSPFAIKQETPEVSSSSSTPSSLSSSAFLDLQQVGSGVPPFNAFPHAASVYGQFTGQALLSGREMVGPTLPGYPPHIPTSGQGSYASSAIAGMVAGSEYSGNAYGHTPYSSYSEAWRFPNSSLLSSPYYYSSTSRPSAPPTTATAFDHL
In data set [10] the target is T3, Caspase-6 (Homo sapiens, UniProt P55212).
T3 sequence (P55212 whole entry): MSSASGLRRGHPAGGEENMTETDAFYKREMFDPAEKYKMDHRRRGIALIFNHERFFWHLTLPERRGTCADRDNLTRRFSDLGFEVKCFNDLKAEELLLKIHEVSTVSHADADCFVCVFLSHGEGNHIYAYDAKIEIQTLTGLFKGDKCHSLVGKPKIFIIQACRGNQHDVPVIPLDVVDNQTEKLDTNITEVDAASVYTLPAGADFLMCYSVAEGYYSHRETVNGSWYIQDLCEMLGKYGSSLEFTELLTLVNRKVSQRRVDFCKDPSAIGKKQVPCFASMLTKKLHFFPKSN
The data set is described as follows: human caspase-6 inhibitors, dose response, biochemical, VEID-R110 fluorescence, cherry-pick (AID 720632).

For data set [11], the target named is T4, Ubiquitin-conjugating enzyme E2 N (Homo sapiens, UniProt P61088).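 Note: Dose-response confirmation in a TR-FRET assay detecting UBC13-driven polyubiquitin chain formation, inhibition measured.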
T4 sequence (P61088 whole entry): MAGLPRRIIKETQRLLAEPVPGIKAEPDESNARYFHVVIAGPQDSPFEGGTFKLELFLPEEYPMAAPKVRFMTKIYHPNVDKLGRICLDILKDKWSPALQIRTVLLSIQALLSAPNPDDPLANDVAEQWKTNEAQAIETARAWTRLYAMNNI
It is filed as functional.

Data set [12] in a line: intracellular Trypanosoma cruzi inhibitors in host cells – cell-based, plate reader, cherry-pick samples, set 3, dose response (AID 651818).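 Note: compounds incubated with infected cells for about four days.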 Format: functional.
The target in data set [13] is T5, Corticotropin-releasing factor receptor 2/Corticotropin-releasing factor-binding protein (Homo sapiens, UniProt P24387+Q13324).
T5 sequence (Q13324 whole entry): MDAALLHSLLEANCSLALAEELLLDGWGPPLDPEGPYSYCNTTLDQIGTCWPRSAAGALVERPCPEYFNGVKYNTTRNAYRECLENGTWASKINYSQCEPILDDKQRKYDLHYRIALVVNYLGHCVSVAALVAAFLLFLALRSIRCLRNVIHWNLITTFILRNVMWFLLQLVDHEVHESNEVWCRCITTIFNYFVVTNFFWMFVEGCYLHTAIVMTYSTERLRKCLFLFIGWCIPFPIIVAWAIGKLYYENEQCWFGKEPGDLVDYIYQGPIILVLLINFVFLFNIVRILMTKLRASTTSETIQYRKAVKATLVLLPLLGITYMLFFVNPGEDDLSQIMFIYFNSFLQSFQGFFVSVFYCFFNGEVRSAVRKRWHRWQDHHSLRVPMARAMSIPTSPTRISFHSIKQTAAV
T5 sequence (P24387 whole entry): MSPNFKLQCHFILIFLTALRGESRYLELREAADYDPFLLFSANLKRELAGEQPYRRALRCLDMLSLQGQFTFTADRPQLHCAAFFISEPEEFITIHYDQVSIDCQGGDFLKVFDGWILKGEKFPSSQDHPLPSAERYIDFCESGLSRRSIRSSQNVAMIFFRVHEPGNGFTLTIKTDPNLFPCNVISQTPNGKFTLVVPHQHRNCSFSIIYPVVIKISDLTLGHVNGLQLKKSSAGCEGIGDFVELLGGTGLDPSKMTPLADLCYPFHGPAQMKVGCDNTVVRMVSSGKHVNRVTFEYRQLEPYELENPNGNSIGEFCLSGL
Description: Dose Response confirmation of uHTS hits for small molecule antagonists of the CRF-binding protein and CRF-R2 receptor complex. Format: functional. To be noted: read-out: IC50_Mean.

For data set [14], the target named is T5, Corticotropin-releasing factor receptor 2/Corticotropin-releasing factor-binding protein. The data set is described as follows: activators of CRF receptor 2 with binding protein – uHTS hits, confirmation (AID 602473). Format: functional. To be noted: read-out: EC50_Mean.

Calls of active or inactive are those of the source.

On to `Cc1ccc(S(=O)(=O)N(NC2=NS(=O)(=O)c3ccccc32)C(=O)c2ccccc2)cc1`, for which, in data set [1], the IC50 is 46.8 µM (active). Regarding `CCOc1nc(N=C(N)N)nc2c(C)cccc12`, the IC50 in data set [1] was 7.38 µM (active). Also, in [2], the half-maximal activity concentration (AC50) – broadly, the concentration at which the activity in the assay is half-maximal – was “inconclusive”.

Take `c1ccc(CCCCN2C(Nc3ccccc3)=NC[C@@H]2Cc2ccccc2)cc1`: the IC50 in [3] was 12 µM (active). Take `C[n+]1ccccc1COc1ccc(C(C)(C)C)cc1`: in [3], the IC50 was 13.8 µM (active).

`CCC(C)(C)n1nnnc1C(c1ccc2ncccc2c1)N1CCN(c2nc3ccccc3s2)CC1` (stereo unspecified): in [1], the IC50 was 51.1 µM (active). Still for that read-out and setting: then `CCc1cc(=O)oc2c(CN3CCN(C)CC3)c(O)c(Cl)cc12`, with 35.9 µM (active). Consider `CN(C)C(=O)c1ccc(-c2nnc(O)c3ccccc23)cc1`, for which the IC50 in [4] was > 79 µM (inactive).

Take `COc1ccc(C(C(=O)NC2CCCCC2)N(C(=O)c2ccco2)c2ccccc2C(C)=O)cc1OC` (stereo unspecified): the IC50 in data set [3] was 2 µM (active). Regarding `OCC[C@@H]1C[C@@H](O)[C@H](O)[C@]2(OCc3ccccc32)O1`, the AC50 in [5] was 28.2 µM (active); in data set [6] it was 27.2 µM (active).

With `CC(=O)c1cccc(-c2cnc3c(NC=O)cc(-c4cccc(C(=O)N(C)C)c4)cn23)c1`, in [4], the IC50 is > 79 µM (inactive). As for `CC1CCCCN1CCNC(=O)CN1C(=O)CSc2ccc(S(=O)(=O)N3CCCCC3)cc21` (stereo unspecified), the IC50 in data set [3] was 12.9 µM (active). As to `O=C(Cc1ccc(S(=O)(=O)N2CCOCC2)s1)N1CCN(S(=O)(=O)c2ccc(Cl)cc2)CC1`, the AC50 was 7.03 µM (active) in data set [7], 7.93 µM (active) in data set [8], 14.1 µM (active) in [5] and 28.2 µM (active) in data set [6]. For the compound `COc1ccc(-c2cnc3c(NC=O)cc(-c4cccc(NS(C)(=O)=O)c4)cn23)cc1OC`, the IC50 in [4] is > 79 µM (inactive). For the same compound, in data set [9], the half-maximal activity concentration (AC50) is 5.09 µM (active). `C/C(=N\Nc1ccc(C(=O)O)cc1)c1ccc(Br)cc1`: in data set [10], the AC50 was 7.07 µM (active). On to `COc1ccccc1NS(=O)(=O)c1cccc(C(=O)N/N=C/c2c(CO)cnc(C)c2O)c1`, for which the IC50 in data set [11] is > 20 µM (inactive); in [4], > 79 µM (inactive). Consider `C[C@H](CO)N1C[C@H](C)[C@H](CN(C)C(=O)Nc2ccc(F)cc2)Oc2c(NC(=O)c3ccncc3)cccc2C1=O`, for which, in data set [12], the AC50 is 2.08 µM (active).

Turning to `Cc1ccc(S(=O)(=O)Nc2ccc3c(c2)C(=O)N([C@H](C)CO)C[C@H](C)[C@@H](CN(C)C(=O)Nc2ccc(C(F)(F)F)cc2)OCCCC[C@@H](C)O3)cc1`, the half-maximal activity concentration (AC50) in data set [12] is 4.82 µM (active). The same measure, in the same setting: then `Cc1ccc(S(=O)(=O)N(C)C[C@H]2Oc3c(NC(=O)c4nc5ccccc5s4)cccc3C(=O)N([C@@H](C)CO)C[C@@H]2C)cc1`, with 1.09 µM (active). Same read-out and setting: then `C[C@@H]1CN([C@@H](C)CO)C(=O)c2cccc(NC(=O)Nc3ccc(F)cc3)c2O[C@@H]1CN(C)Cc1ccc(C(=O)Nc2ccccc2N)cc1`, with 3.68 µM (active); and `C[C@@H]1CN([C@H](C)CO)C(=O)Cc2cc(NS(=O)(=O)c3ccc(F)cc3)ccc2O[C@@H]1CN(C)Cc1ccc(-c2ccccc2)cc1`, with 3.2 µM (active); and `C[C@@H]1CN([C@@H](C)CO)C(=O)c2cccc(NS(=O)(=O)c3ccc(Cl)cc3)c2O[C@H]1CN(C)Cc1ccc(C(=O)Nc2ccccc2N)cc1`, with 2.53 µM (active). In the case of `CC1CCN(C(=O)c2ncn3c2C(=O)N[C@@H](C)C3)CC1`, the half-maximal activity concentration (AC50) in data set [7] was 1.94 µM (active); in data set [8], 9.53 µM (active); in data set [5], 7.15 µM (active); in [6], 9.91 µM (active). As for `O=C(N/N=C/c1ccccn1)c1cccs1`, the IC50 in data set [4] was > 79 µM (inactive); in data set [13], > 47.1 µM (inactive). Also, the EC50 in data set [14] is > 53 µM (inactive). As for `Cn1/c(=N/CC(O)COc2ccccc2)sc2ccccc21` (stereo unspecified), in data set [3], the IC50 was 13.5 µM (active).
